Measurements from US20230293526A1, “METHOD FOR TREATING CANCER WITH A REVERSE TRANSCRIPTASE INHIBITOR” (PrimeFour Therapeutics, Inc., priority 2020, published 2023).
Blank lines part the entries; values can stand above or below the compound they belong to.

Experiments:
Type in all cases: cell-based
SKNAS = experiment: Cell proliferation Ex.3; details: Homo sapiens, SK-N-AS
Description: (§1) A dose response relationship on cell proliferation was assessed for Compound 13 on 140 tumor cell lines. […] Cells were cultured in the appropriate media. For the assays, cells were seeded in white cell culture-treated flat and clear bottom multiwell plates and incubated at 37° C. overnight before compound was added. […] on the medium, cell plates were equilibrated to room temperature for one hour, CellTiterGlo reagent (Promega) was added and luminescence was measured approximately an hour later using a luminometer. Raw data were converted into percent cell viability relative to the high and low control, which were set to 10000 and 000, respectively.

COLO205 = experiment: Cell proliferation Ex.3; details: Homo sapiens, COLO 205
Description: as §1

SKMEL28 = experiment: Cell proliferation Ex.3; details: Homo sapiens, SK-MEL-28
Description: as §1

HT29 = experiment: Cell proliferation Ex.3; details: Homo sapiens, HT-29
Description: as §1

HS578T = experiment: Cell proliferation Ex.3; details: Homo sapiens, Hs-578T
Description: as §1

K-562 = experiment: Cell proliferation Ex.3; details: Homo sapiens, K562
Description: as §1

HCT15 = experiment: Cell proliferation Ex.3; details: Homo sapiens, HCT-15
Description: as §1

HCT116 = experiment: Cell proliferation Ex.3; details: Homo sapiens, HCT-116
Description: as §1

U2OS = experiment: Cell proliferation Ex.3; details: Homo sapiens
Description: as §1

SAOS2 = experiment: Cell proliferation Ex.3; details: Homo sapiens, SAOS-2
Description: as §1

SF268 = experiment: Cell proliferation Ex.3; details: Homo sapiens, SF-268
Description: as §1

HCC827 = experiment: Cell proliferation CellTiterGlo Ex.2; details: Homo sapiens; HCC827 (Lung), 72 h
Summary of the method: (§2)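 Cells were seeded, incubated overnight at 37 °C, then dosed at 10, 3, 1, 0.3, 0.1, 0.03, 0.01 and 0.003 μM for 72 h (5% or 10% CO2). CellTiterGlo luminescence gave percent viability relative to 0.10% DMSO (high) and 10 μM staurosporine (low) controls.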

HT-29 = experiment: Cell proliferation CellTiterGlo Ex.2; details: Homo sapiens; HT-29 (Colon), 72 h
Summary of the method: as §2

SNU840 = experiment: Cell proliferation CellTiterGlo Ex.2; details: SNU-840; SNU840 (Ovary), 72 h
Summary of the method: as §2

U251MG = experiment: Cell proliferation CellTiterGlo Ex.2; details: Homo sapiens, U-251; U251MG (Brain), 72 h
Summary of the method: as §2

HeLa = experiment: Cell proliferation CellTiterGlo Ex.2; details: Homo sapiens; HeLa (Cervix), 72 h
Summary of the method: as §2

SCH = experiment: Cell proliferation CellTiterGlo Ex.2; details: SCH (Stomach), 72 h
Summary of the method: as §2

MKN-45 = experiment: Cell proliferation CellTiterGlo Ex.2; details: Homo sapiens; MKN-45 (Stomach), 72 h
Summary of the method: as §2

JIMT-1 = experiment: Cell proliferation CellTiterGlo Ex.2; details: Homo sapiens; JIMT-1 (Breast), 72 h
Summary of the method: as §2

OV56 = experiment: Cell proliferation CellTiterGlo Ex.2; details: OV56 (Ovary), 72 h
Summary of the method: as §2

RL95-2 = experiment: Cell proliferation CellTiterGlo Ex.2; details: Homo sapiens; RL95-2 (Endometrium), 72 h
Summary of the method: as §2

OVK18 = experiment: Cell proliferation CellTiterGlo Ex.2; details: OVK18 (Ovary), 72 h
Summary of the method: as §2

KG-1 a = experiment: Cell proliferation CellTiterGlo Ex.2; details: Homo sapiens; KG-1 a (Blood), 72 h
Summary of the method: as §2

KG-1 = experiment: Cell proliferation CellTiterGlo Ex.2; details: Homo sapiens; KG-1 (Blood), 72 h
Summary of the method: as §2

HCT-15 = experiment: Cell proliferation CellTiterGlo Ex.2; details: Homo sapiens; HCT-15 (Colon), 72 h
Summary of the method: as §2

NCI-H2110 = experiment: Cell proliferation CellTiterGlo Ex.2; details: NCI-H2110 (Lung), 72 h
Summary of the method: as §2

IC50 (SKNAS; 72 h): > 10 µM
IC50 (SKNAS; 120 h): > 10 µM
IC50 (SKNAS; 168 h): > 10 µM
IC50 (COLO205; COLO205, 72 h): > 10 µM
IC50 (COLO205; COLO205, 120 h): 1.15 µM
IC50 (COLO205; COLO205, 168 h): 0.87 µM
IC50 (SKMEL28; SKMEL28, 72 h): > 10 µM
IC50 (SKMEL28; SKMEL28, 120 h): > 10 µM
IC50 (SKMEL28; SKMEL28, 168 h): > 10 µM
IC50 (HT29; HT29, 72 h): > 10 µM
IC50 (HT29; HT29, 120 h): > 10 µM
IC50 (HT29; HT29, 168 h): > 10 µM
IC50 (K-562; K-562, 72 h): > 10 µM
IC50 (K-562; K-562, 120 h): > 10 µM
IC50 (K-562; K-562, 168 h): > 10 µM
IC50 (HCT15; HCT15, 72 h): > 10 µM
IC50 (HCT15; HCT15, 120 h): > 10 µM
IC50 (HCT15; HCT15, 168 h): > 10 µM
IC50 (HCT116; HCT116, 72 h): > 10 µM
IC50 (HCT116; HCT116, 120 h): > 10 µM
IC50 (HCT116; HCT116, 168 h): > 10 µM
IC50 (U2OS; 72 h): > 10 µM
IC50 (U2OS; 120 h): > 10 µM
IC50 (U2OS; 168 h): > 10 µM
SMILES: C#C[C@]1(CO)O[C@@H](n2cc(F)c(N)nc2=O)C[C@@H]1O [compound 9]
IC50 (HS578T; 72 h): > 10 µM
IC50 (HS578T; 120 h): > 10 µM
IC50 (HS578T; 168 h): > 10 µM
IC50 (SAOS2; SAOS2, 72 h): > 10 µM
IC50 (SAOS2; SAOS2, 120 h): > 10 µM
IC50 (SAOS2; SAOS2, 168 h): > 10 µM
IC50 (SF268; SF268, 72 h): > 10 µM
IC50 (SF268; SF268, 120 h): > 10 µM
IC50 (SF268; SF268, 168 h): > 10 µM

SMILES: C#C[C@]1(CO)O[C@@H](n2cnc3c(=O)[nH]c(N)nc32)C[C@@H]1O [compound 13]
IC50 (HCC827): 4.47 µM
IC50 (HT-29): > 10 µM
IC50 (SNU840): 4.23 µM
IC50 (U251MG): > 10 µM
IC50 (HeLa): 1.3 µM
IC50 (SCH): 0.29 µM
IC50 (MKN-45): > 10 µM
IC50 (JIMT-1): 7 µM
IC50 (OV56): 1.99 µM
IC50 (RL95-2): 5.38 µM
IC50 (OVK18): 2.21 µM
IC50 (KG-1 a): 5.86 µM
IC50 (KG-1): > 10 µM
IC50 (HCT-15): > 10 µM
IC50 (NCI-H2110): 3.41 µM
